Test results as given in patent US20230250127A1, “MODIFIED mRNA 5'-CAP ANALOGS” (Nanjing GeneLeap Biotechnology Co., Ltd., priority 2021, published 2023).
Entries after “also recorded” stand apart in the source; their conditions may differ.

Legend:
[1] = test system: C57BL/6 mice; assay: In vivo Fluc expression of capped mRNA-LNPs by in vivo imaging system (IVIS); details: for expression levels of Fluc protein in liver and muscle (injection site) tissues: Experiment 2, by in vivo imaging system and by ex vivo Luciferase assay, vs Cleancap AG (FIG. 13); for in vivo expression levels of Fluc protein (in vivo imaging system): vs Cleancap AG-mRNA; for Fluc expression in vivo, summary of FIGS. 10-13: mice, intramuscular mRNA-LNPs, compared to Cleancap AG
Description: (§1) Female C57BL/6 mice 7-8 weeks of age were randomly allocated to experimental groups, 30 mice per group. For each group, 6 experimental conditions were set up: 2 mRNA doses (0.01, 0.1 mg/kg) and 3 time points 6 h, 24 h, 48 h (5 mice/dose/time point). A single intramuscular injection of mRNA-loaded LNPs was performed (injection volume 40 µl). At 6 h, 24 h and 48 h post-injection, 5 animals/dose in each group were taken for in vivo tissue and organ imaging. The animals were shaved and intraperitoneally injected with 200 µL of a d-luciferin solution (15 mg/mL in DPBS) D-luciferin and anesthetized 8 min later using isoflurane (5% induction, 2% maintenance in pure oxygen). The emitted light was measured by in vivo imaging system (IVIS) exactly 12 min after d-luciferin injection. Whole body supine and lateral position imaging was carried out.
(§2) After Whole body imaging, the animals were euthanized, and the leg muscles (injection site) were harvested in Experiment 1; muscles and livers were harvested in Experiment 2. The emitted light by the tissues/organs was measured by IVIS in less than 25 min after d-luciferin injection.

[2] = test system: C57BL/6 mice; assay: Ex vivo Luciferase assay of tissue homogenates after mRNA-LNP injection; type: in vivo; details: Experiment 1, low and high dose regimens, different time points; vs Cleancap AG-mRNA
Description: as §1, §2
Next, tissue lysates were prepared by homogenization and Glo Lysis Buffer 1X (Abcam cat # ab6789) treatment. The lysates were centrifuged at 4° C. for 15 min at 10000 g, and the supernatants were used for total protein quantification and luciferase activity assessment. […]

[3] = test system: HeLa cells; assay: Fluc mRNA carrying 5′-cap analogs, translation in HeLa cells (luciferase luminescence); type: cell-based; details: for Fluc expression in vitro, summary of FIGS. 7-9: HeLa cells, compared to the control Cleancap AG; for expression levels of Fluc protein by mRNAs containing different 5′caps: HeLa
Description: The novel 5′ -caps synthesized were incorporated into Firefly luciferase (Fluc) mRNA using pGL-T7-AG-nUTR002-Fluc-HBB3UTR-30+70A-BpiI (Kana-AGG-BpiI Plasmid Size: 4856bp). Then, the dose responses of the new cap analogs were compared to commercially available Cap analog from Trilink m7G(5′)ppp(5′)(2′OMeA)pG (cat no. N-7113).
Briefly, 1 µg GLuc (AGG plasmid) template per reaction was transcribed in vitro using a High Yield T7 mRNA synthesis kit (NEB, E2040S). Cap analogs were added by co-transcription. Transcription was carried out for 2 hours, followed by DNase I treatment for 15 min. Ratio of NTP to Cap analogs, 10:4 (10 mM NTP each, 4 mM cap).
Expected mRNA length: 2008 nt. Then the small scale IVT mRNAs were purified using DNA Selection Magnetic beads (Yeasen,12601ES56), Large scale IVT mRNAs were purified using POROS™ Oligo (dT)25 (Thermofisher, A47383) and Ultrafiltration use Amicon® Ultra-15(Merk, UFC910024), the RNA was quantitated using Nanodrop, and 500 ng of each mRNA was run on agarose E-Gel, mRNAs were run on a 2100 bioanalyzer or CE (PA800) for checking mRNA integrity, HPLC for Purity, DNAzyme-PAGE for Capping efficiency and polyA quality. Large scale mRNA were subjected to more QC (Capping/polyA tail-LC-MS, Template DNA residual-qPCR, dsRNA-Elisa, pH).
Novel 5 ′-cap structures that were synthesized were incorporated into Firefly luciferase (Fluc) mRNA via IVT as described above and then assessed for translation efficacy in HeLa cells following transfection. Briefly, HeLa cells were seeded in a 96-well plate (20000cells/0.1 ml/well). The next day (approx. ∼80-90% confluent), the cells were transfected with 25, 50, or 100 ng/well of Fluc-mRNA samples using 2 µl/ml of Lipofectamine MessengerMax (Thermo Scientific, cat#LMRNA015) or in-house formulated lipid-nanoparticles (LNPs). The cells were incubated for another 24 h. To monitor the functional (translation) activity of Fluc mRNAs into which different 5′cap analogs have been incorporated, the Fluc protein expression was evaluated by adding 60 µl Bio Lite Luciferase Assay System (Vazyme, cat # DD1201-02) into each well, incubating the plates at room temperature for 10 min, and measuring the luminescence using a multimode plate reader luminometer. All wells were assayed in triplicates. Statistical analysis was performed using two-way ANOVA followed by uncorrected Fisher’s LSD.

[4] = test system: C3 tumors; assay: C3 Tumor Model, capped HPV E6/E7 mRNA; type: in vivo; details: GL2288 mRNA, mid dose (0.05 mg/Kg), intramuscular Day 0; vs CC
Description: As soon as the C3 tumors reached 100 mm^3, our HPV E6/E7 mRNA sequence (GL2281) (wherein the sequence encoding HPV E6-E7 is SEQ ID NO:2), capped with either CleanCap, GL-Cap5 or GL-Cap1, was administered intramuscularly at 10 µg per dose, with the first dose on Day 0 and second dose on Day 10. The PBS and 10 µg of CleanCap-capped Luciferase mRNA (FF luciferase) were used for comparison.
As soon as the C3 tumors reached 100 mm3, our HPV E6/E7 mRNA sequence (GL2288) (wherein the sequence encoding HPV E6-E7 is SEQ ID NO:1), capped with either CleanCap (CC), or GL-Cap7, was administered intramuscularly at different doses at Day 0. The CleanCap-capped Luciferase mRNA (FF Luciferase) was used for comparison.

[5] = Experiment 2, single intramuscular dose 0.1 mg/kg, 6 h after injection

| Structure (SMILES) | expression levels of Fluc protein in liver and muscle (injection site) tissues [1] | in vivo expression levels of Fluc protein (in vivo imaging system) [1, 5] | expression levels of Fluc protein in muscle tissue homogenates (ex vivo Luciferase assay) [2] | Fluc expression in vitro, summary of FIGS. 7-9 [3] | expression levels of Fluc protein by mRNAs containing different 5′caps ([3]; 24 h, in-house LNP formulation, high and medium doses (FIG. 7B)) | expression levels of Fluc protein by mRNAs containing different 5′caps ([3]; 24 h post-transfection, Lipofectamine MessengerMax, different tested doses, vs Cleancap AG (FIG. 7A)) | in vivo expression levels of Fluc protein (in vivo imaging system) ([1]; Experiment 1, single intramuscular dose of mRNA-LNPs, low and high dose regimens, 6 h, 24 h, 48 h) | Fluc expression in vivo, summary of FIGS. 10-13 [1] | expression levels of Fluc protein by mRNAs containing different 5′caps ([3]; 24 h, in-house LNP formulation, low doses (FIG. 7B)) | anti-tumor efficacy [4] |
| --- | --- | --- | --- | --- | --- | --- | --- | --- | --- | --- |
| C[n+]1cn([C@@H]2O[C@H](COP(=O)([O-])OP(=O)(O)OP(=O)(O)OC[C@]34COC(C3OP(=O)(O)OC[C@]35COC(C3OP(=O)(O)OC[C@H]3O[C@@H](n6cnc7c(=O)[nH]c(N)nc76)C(O)C3O)[C@H](n3cnc6c(N)ncnc63)O5)[C@H](n3cnc5c(N)ncnc53)O4)C(O)C2O)c2nc(N)[nH]c(=O)c21 (some centres unmarked) [GL-Cap1, 7mGppp(locked)Ap(locked)ApG] | better | slightly higher than in the Cleancap AG group, but without statistical significance |  |  |  |  |  |  |  |  |
| C[n+]1cn([C@@H]2O[C@H](COP(=O)([O-])OP(=O)(O)OP(=O)(O)OC[C@]34COC(C3OP(=O)(O)OC[C@H]3O[C@@H](n5cnc6c(=O)[nH]c(N)nc65)C(O)C3O)[C@H](n3cnc5c(N)ncnc53)O4)C(O)C2O)c2nc(N)[nH]c(=O)c21 (some centres unmarked) [GL-Cap5, 7mGppp(locked)ApG] | comparable | significantly higher Fluc expression levels | higher than with Cleancap AG-mRNA | stronger expression | significantly higher than all the other tested caps | significantly higher expression level at different tested doses | significantly higher Fluc expression levels; also recorded: the strongest expression level among the tested caps | significantly stronger expression |  |  |
| COCCOC1C(O)[C@@H](COP(=O)([O-])OP(=O)(O)OP(=O)(O)OC[C@]23COC(C2OP(=O)(O)OC[C@H]2O[C@@H](n4cnc5c(=O)[nH]c(N)nc54)C(O)C2O)[C@H](n2cnc4c(N)ncnc42)O3)O[C@H]1n1c[n+](C)c2c(=O)[nH]c(N)nc21 (some centres unmarked) [GL-Cap8, 7m-2-′MOE-Gppp(locked)ApG] | better; also recorded: highest expression levels |  |  |  |  |  |  |  | stronger expression than Cleancap AG (Trilink) |  |
| C[n+]1cn([C@@H]2O[C@H](COP(=O)([O-])OP(=O)(O)OP(=O)(O)OC[C@]34COC(C3OP(=O)(O)OC[C@H]3O[C@@H](n5cnc6c(=O)[nH]c(N)nc65)C(O)C3O)[C@H](n3cnc5c(N)ncnc53)O4)C(O)C2F)c2nc(N)[nH]c(=O)c21 (some centres unmarked) [GL-Cap7, 7m-2′F-Gppp(locked)ApG] | better; also recorded: highest expression levels | significantly higher Fluc expression levels |  | stronger expression |  |  |  | significantly stronger expression |  | higher anti-tumor efficacy than CC |
